Assay [1] has as its target T1, Opioid receptors; mu/kappa/delta (Homo sapiens) (UniProt P41145+P41143+P35372). Kind of assay: In vitro agonist activity towards opioid receptor on the electrically stimulated Guinea pig ileal longitudinal muscle (GPI); morphine IC50/ agonist IC50 in the same tissue. As to conditions: Cavia porcellus; target entry is the homologue from another species. The format is functional.

Assay [2] deals with T1, Opioid receptors; mu/kappa/delta (Homo sapiens). Put plainly: The relative potency was evaluated with respect to morphine. The following applies: Cavia porcellus.

Data on five molecules can be found in ChEMBL document CHEMBL1122928, “Stereostructure-activity relationship of opioid agonist and antagonist bivalent ligands. Evidence for bridging between vicinal opioid receptors” (J Med Chem, 1985).

T1 sequence (P35372 whole entry, looked up): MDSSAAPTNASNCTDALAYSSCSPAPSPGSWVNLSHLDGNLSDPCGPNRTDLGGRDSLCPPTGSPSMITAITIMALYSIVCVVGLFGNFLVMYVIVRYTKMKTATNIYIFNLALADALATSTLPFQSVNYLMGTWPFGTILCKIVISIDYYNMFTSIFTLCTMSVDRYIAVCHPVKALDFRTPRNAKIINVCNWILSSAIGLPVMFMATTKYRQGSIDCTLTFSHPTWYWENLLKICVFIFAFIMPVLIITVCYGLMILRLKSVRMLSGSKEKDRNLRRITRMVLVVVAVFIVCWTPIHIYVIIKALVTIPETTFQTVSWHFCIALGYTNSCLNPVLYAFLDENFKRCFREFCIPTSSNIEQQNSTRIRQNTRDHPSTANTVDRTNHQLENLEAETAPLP
T1 sequence (P41143 whole entry, looked up): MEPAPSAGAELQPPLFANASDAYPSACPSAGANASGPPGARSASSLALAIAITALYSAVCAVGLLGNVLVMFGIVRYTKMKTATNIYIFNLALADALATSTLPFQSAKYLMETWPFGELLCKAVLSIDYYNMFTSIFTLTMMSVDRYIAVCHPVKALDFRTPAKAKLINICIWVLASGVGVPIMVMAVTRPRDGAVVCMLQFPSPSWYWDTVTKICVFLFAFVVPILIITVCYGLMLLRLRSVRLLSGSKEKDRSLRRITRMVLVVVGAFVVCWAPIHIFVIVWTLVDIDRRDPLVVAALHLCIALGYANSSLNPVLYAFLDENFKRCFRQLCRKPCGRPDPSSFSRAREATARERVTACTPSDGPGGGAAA
T1 sequence (P41145 whole entry, looked up): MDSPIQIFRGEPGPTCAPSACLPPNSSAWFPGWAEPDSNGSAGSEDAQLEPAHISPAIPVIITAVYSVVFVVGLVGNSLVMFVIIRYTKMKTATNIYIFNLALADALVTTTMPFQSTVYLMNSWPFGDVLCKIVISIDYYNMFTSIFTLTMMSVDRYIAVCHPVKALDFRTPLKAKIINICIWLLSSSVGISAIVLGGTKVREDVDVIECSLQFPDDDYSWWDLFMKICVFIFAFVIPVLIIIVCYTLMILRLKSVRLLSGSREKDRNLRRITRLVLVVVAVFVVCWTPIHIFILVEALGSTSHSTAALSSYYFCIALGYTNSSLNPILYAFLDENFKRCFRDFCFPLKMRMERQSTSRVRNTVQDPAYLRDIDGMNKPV

As to `O=C(CCC(=O)NCC(=O)NCC(=O)NC1CCC2(O)[C@H]3Cc4ccc(O)c5c4C2(CCN3CC2CC2)C1O5)NCC(=O)NCC(=O)NC1CCC2(O)[C@@H]3Cc4ccc(O)c5c4C2(CCN3CC2CC2)C1O5` (single isomer, unassigned; (-)), the Potency ratio in assay [1] worked out at 181. Also, in assay [2], the Relative potency is 33.5. The corresponding values for `CC(=O)NCC(=O)NCC(=O)NC1CCC2(O)[C@H]3Cc4ccc(O)c5c4C2(CCN3CC2CC2)C1O5` (stereo partly drawn) are 5.4 and 1. As for `O=C(CCC(=O)NCC(=O)NCC(=O)NC1CCC2(O)[C@H]3Cc4ccc(O)c5c4C2(CCN3CC2CC2)C1O5)NCC(=O)NCC(=O)NC1CCC2(O)[C@H]3Cc4ccc(O)c5c4C2(CCN3CC2CC2)C1O5` (stereo partly drawn), the Potency ratio in assay [1] worked out at 7.8. For the same molecule, in assay [2], the Relative potency was found to be 1.4. As for `CN1CCC23c4c5ccc(O)c4OC2C(NC(=O)CNC(=O)CNC(=O)CCC(=O)NCC(=O)NCC(=O)NC2CCC4(O)[C@H]6Cc7ccc(O)c8c7C4(CCN6C)C2O8)CCC3(O)[C@H]1C5` (stereo partly drawn), the Potency ratio in assay [1] is 7.6. For the molecule `CC(=O)NCC(=O)NCC(=O)NC1CCC2(O)[C@H]3Cc4ccc(O)c5c4C2(CCN3C)C1O5` (stereo partly drawn), the Potency ratio in assay [1] was 1.9.
